In article PMC9703152 (Journal of hepatology, 2020):
Structures can show the parent of a compound that is named as a salt. Where two headings read alike, the source gives them in different places.

Experiments:
[1] = test system: mtDNA production in human PBMCs
HBVWT^C2 [2] = experiment: Anti-HBV qPCR assay in HBV-exposed PXB-cells; format: cell-based, Hepatitis B virus; details: for IC50: Hepatitis B virus, read-out: IC50^qPCR_cell; for IC95^qPCR_sup / IC95^qPCR_cell: PXB-cells; for IC95^qPCR_sup: HBVWT^C2, HBV-DNA in culture medium blocked by 95%; for IC95^qPCR_cell: HBVWT^C2, intracellular HBV-DNA blocked by 95%
[3] = Cytotoxicity, MTT assay, MT-2 cells; format: cell-based; details: human
[4] = Cytotoxicity, MTT assay, HepG2 cells; format: cell-based; details: human
[5] = Cytotoxicity, MTT assay, Huh7 cells; format: cell-based; details: human
[6] = Cytotoxicity, MTT assay, PXB-cells; format: cell-based; details: human
HBVWT^D1 [7] = experiment: microbe, parasite or virus in culture; format: cell-based, Hepatitis B virus
[8] = Intracellular concentration of compound in HepG2.2.15 cells; format: in vitro ADME, human; details: 100 µM, 6 hours incubation
[9] = Acid resistance: anti-HBV activity after pH 2 exposure; format: physicochemical; details: pH 2, 5 and 60 minutes at 37 °C, then tested in HepG2.2.15 cells
HBVWT^C2 [10] = experiment: Antiviral effect in chronically HBVWT^C2-infected PXB-mice; format: in vivo; details: for reduction of serum HBVWT^C2-DNA copies: day 21
HIV-1LAI = experiment: Anti-HIV assay; format: cell-based; details: Human immunodeficiency virus 1, read-out: IC50^MTT
HBV [11] = experiment: Combination of E-CFCP with GLS4, HBV-DNA production by HepG2.2.15 cells; format: cell-based, Hepatitis B virus
[12] = Body weights and serum human albumin in treated PXB-mice; format: in vivo
[13] = test system: MOT-4 cells and human primary peripheral blood mononuclear cells; experiment: Cell proliferation assays in MOT-4 cells and human PBMCs; format: cell-based
HBVWT^D1 [14] = details: high concentrations (100 and 1,000 nM), HepG2.2.15 cells
[15] = test system: mtDNA production in PXB-cells
HBVWT^D1 [16] = experiment: microbe, parasite or virus in culture; details: Hepatitis B virus, HepG2.2.15, read-out: IC50^qPCR_cell
[17] = Cytotoxicity, LDH release assay, primary hepatocytes; details: human
[18] = Cytotoxicity, Neutral Red staining assay, primary hepatocytes; details: human
HBV [19] = details: 90 mg/kg/day, 3-week administration, HBV-infected PXB-mice; cited from earlier work
[20] = Intracellular concentrations of phosphorylated forms in HepG2.2.15 cells; format: in vitro ADME, human
[21] = 10 µM, 6 days of culture without compound

C=C1C(n2cnc3c(=O)[nH]c(N)nc32)CC(O)C1(C#N)CO (stereo not drawn) [CMCdG]
inhibition of mtDNA production (in words) ([1]; human PBMCs and PXB-cells): non-toxic

N#C[C@]1(CO)/C(=C\F)[C@@H](n2cnc3c(=O)[nH]c(N)nc32)C[C@@H]1O [E-CFCP]
IC50 (HBVWT^C2 [2]): 0.01 nM | IC95^qPCR_sup (HBVWT^C2 [2]): 0.0035 µM | IC95^qPCR_cell (HBVWT^C2 [2]): 0.339 µM | CC50 ([3]; MT-2 cells): 306 µM | CC50 ([4]; HepG2 cells): 115 µM | CC50 ([5]; Huh7 cells): > 500 µM | CC50 ([6]; PXB-cells): > 500 µM | HBV-DNA synthesis blockade (HBVWT^D1 [7]; [21]): 100% | HBV-DNA synthesis blockade (HBVWT^D1 [7]; 10 µM, 16 days of culture without compound): > 80% | % inhibition of HBVWT^D1-DNA production (HBVWT^D1 [7]; 10 µM, exposed 11 days, 14 days of culture without compound): > 90% | persistence of anti-HBV activity (>80% Inhibition) after compound removal (HBVWT^D1 [7]; HepG2.2.15 cells): ~16 days | intracellular concentration [8]: approximately 200 pmol/2×10^6 cells | anti-HBV activity after pH 2 exposure [9]: comparable to pH 2-unexposed E-CFCP | reduction of serum HBVWT^C2-DNA copies (HBVWT^C2 [10]; 0.02 mg/kg/day for two weeks): 2.2±0.06 log | persistence of reduction after administration cessation (HBVWT^C2 [10]; 0.2 mg/kg/day): ≥ 3 weeks | reduction of serum HBVWT^C2-DNA copies (HBVWT^C2 [10]; 0.2 mg/kg/day for two weeks): 2.6±0.1 log | persistence of reduction following treatment cessation (HBVWT^C2 [10]; PXB-mice, 0.02∼0.2 mg/kg/day): 1–3 weeks | reduction of HBVWT^C2-viremia (HBVWT^C2 [10]; once-daily peroral, 2 weeks, 0.02∼0.2 mg/kg/day): 2–3 logs | IC50 (HIV-1LAI): 0.205 ± 0.0238 µM | combination effect with GLS4 (Chou-Talalay Method) (HBV [11]; 1 and 10 nM E-CFCP with GLS4 at the same concentration): synergism was observed | combination effect with GLS4 (Chou-Talalay Method) (HBV [11]; 100 and 1,000 nM E-CFCP with GLS4 at the same concentration): no synergism was detected | changes in body weights or serum human albumin levels ([12]; 0.2 mg/kg/day for 2 weeks, HBVWT^C2-infected PXB-mice): No significant changes | changes of body weights and human serum albumin over 8 weeks ([12]; once daily 0.2 mg/kg/day, E-CFCP-receiving vs ETV-receiving mice): no significant changes | cell proliferation safety profile (in words) [13]: highly favorable safety profiles | inhibition of HBV-DNA production (HBVWT^D1 [14]): 100% | Mitotox50 ([1]; human PBMCs, mtDNA production): 38.2 µM | Mitotox50 ([15]; PXB-cells, mtDNA production): 29.6 µM | IC50 (HBVWT^D1 [16]): 0.0018 µM | CC50 ([17]; primary hepatocytes): > 100 µM | CC50 ([18]; primary hepatocytes): > 100 µM

C=C1[C@H](CO)[C@@H](O)C[C@@H]1n1cnc2c(=O)[nH]c(N)nc21 [ETV, entecavir]
IC50 (HBVWT^C2 [2]): 0.13 nM | IC95^qPCR_sup (HBVWT^C2 [2]): 0.079 µM | IC95^qPCR_cell (HBVWT^C2 [2]): 0.859 µM | HBV-DNA synthesis blockade (HBVWT^D1 [7]; [21]): < 80% | reduction of serum HBVWT^C2-DNA copy numbers (HBVWT^C2 [10]; 0.02 mg/kg/day, two weeks, at conclusion of administration (day 14)): 2.0±0.07 log | inhibition of HBV-DNA production (HBVWT^D1 [14]): < 100% | Mitotox50 ([1]; human): 40.4 µM | Mitotox50 ([15]; human): 35.2 µM

CC(C)OC(=O)[C@H](C)N[P@](=O)(CO[C@H](C)Cn1cnc2c(N)ncnc21)Oc1ccccc1 [TAF, tenofovir alafenamide, reference compound]
IC50 (HBVWT^C2 [2]): 0.59 nM | IC95^qPCR_sup (HBVWT^C2 [2]): 0.09 µM | IC95^qPCR_cell (HBVWT^C2 [2]): 0.513 µM | CC50 [3]: 21 µM | CC50 [4]: 22 µM | CC50 [5]: 34 µM | CC50 [6]: 8.2 µM | inhibition at 1 µM (HBVWT^D1 [7]; Hepatitis B virus, HepG2.2.15, read-out: HBV-DNA production inhibition): 90% | inhibition of HBV-DNA production (HBVWT^D1 [14]): < 100% | CC50 [17]: 97 µM | CC50 [18]: 26 µM

CC(C)OC(=O)OCOP(=O)(CO[C@H](C)Cn1cnc2c(N)ncnc21)OCOC(=O)OC(C)C [TDF, tenofovir disoproxil fumarate]
viral load reduction (HBV [19]): approximately 1.5 logs

C[C@@H](Cn1cnc2c(N)ncnc21)OCP(=O)(O)OP(=O)(O)OP(=O)(O)O [TFV-DP]
intracellular phosphorylated form (in words) [20]: not detected by day 3 and beyond

N#C[C@]1(CO)/C(=C/F)[C@@H](n2cnc3c(=O)[nH]c(N)nc32)C[C@@H]1O [Z-CFCP]
IC50 (HBVWT^D1 [16]): 0.414 µM

Nc1ccn([C@H]2CC[C@@H](CO)O2)c(=O)n1 [zalcitabine/ddC, zalcitabine]
inhibition of mtDNA production (in words) [1]: strongly blocked mtDNA production
